This note sets out measurements from ChEMBL document CHEMBL2331515, “Design, synthesis, and pharmacological characterization of novel endomorphin-1 analogues as extremely potent μ-opioid agonists” (J Med Chem, 2013).

Data set [1] concerns Mus musculus. The data set is described as follows: Antinociceptive activity in icv dosed Kunming mouse assessed as tail withdrawal latency by hot water tail-flick test. The format is functional. On the technique in general: Thermal pain tests record how soon the animal reacts.
Data set [2] concerns Mus musculus. The data set is described as follows: Antinociceptive activity in Kunming mouse assessed as tail withdrawal latency at 2 mg/kg, iv by hot water tail-flick test in presence of naloxone methiodide. Format: functional, organism-based. Details: dose 2 mg/kg.
Data set [3] has as its system Mus musculus. As to the kind of experiment: Antinociceptive activity in Kunming mouse assessed as tail withdrawal latency at 2 mg/kg, iv by hot water tail-flick test in presence of naloxone. The format is functional, organism-based. Set-up: dose 2 mg/kg.
Data set [4] has as its system Mus musculus. The data set is described as follows: Antinociceptive activity in Kunming mouse assessed as tail withdrawal latency at 2 mg/kg, iv after 15 to 20 mins by hot water tail-flick test relative to control. Set-up: dose 2 mg/kg. Format: functional, organism-based.
For data set [5], the system named is Mus musculus. The data set is described as follows: Antinociceptive activity in icv dosed Kunming mouse assessed as tail withdrawal latency by hot water tail-flick test in presence of naloxone. Format: functional, organism-based.
Data set [6] concerns Mus musculus. The data set is described as follows: Antinociceptive activity in Kunming mouse assessed as tail withdrawal latency at 0.67 to 20 nmol/kg, icv by hot water tail-flick test. Format: functional, organism-based. The note with it: TDE = time-dependent effect.
The nature of data set [7]: Half life in mouse brain homogenate by RP-HPLC analysis. The format is ADME, tissue-based.
The target of data set [8] is T1, Mu-type opioid receptor (Homo sapiens, UniProt P35372). The data set is described as follows: Agonist activity at FLAG-tagged mu-type opioid receptor (unknown origin) expressed in HEK293 cells assessed as stimulation of ERK1/2 phosphorylation at 1 uM after 2 mins by Western blotting analysis. Format: cell-based.
T1 sequence (P35372 whole entry): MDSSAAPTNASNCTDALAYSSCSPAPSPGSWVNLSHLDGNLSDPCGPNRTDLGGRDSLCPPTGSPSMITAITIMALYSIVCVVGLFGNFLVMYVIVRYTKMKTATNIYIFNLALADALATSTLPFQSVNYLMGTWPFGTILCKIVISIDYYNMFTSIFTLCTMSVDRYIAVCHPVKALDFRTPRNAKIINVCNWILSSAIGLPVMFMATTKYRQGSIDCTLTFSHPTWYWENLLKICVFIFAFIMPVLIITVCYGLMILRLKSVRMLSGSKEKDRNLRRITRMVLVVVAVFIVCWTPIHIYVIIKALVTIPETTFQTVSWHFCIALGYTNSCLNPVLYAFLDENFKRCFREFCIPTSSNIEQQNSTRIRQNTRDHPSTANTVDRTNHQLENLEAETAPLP
Data set [9] deals with T1, Mu-type opioid receptor. The data set is described as follows: Agonist activity at FLAG-tagged mu-type opioid receptor (unknown origin) expressed in HEK293 cells assessed as stimulation of ERK1/2 phosphorylation at 1 uM after 10 mins by Western blotting analysis. The format is cell-based. The note with it: TDE = time-dependent effect.
In data set [10] the target is T2, Delta-type opioid receptor (Homo sapiens, UniProt P41143). As to the kind of experiment: Agonist activity at Myc-tagged delta-type opioid receptor (unknown origin) expressed in HEK293 cells assessed as inhibition of forskolin-stimulated cAMP accumulation after 30 mins by liquid scintillation counting analysis relative to DAMGO. Format: functional, cell-based.
T2 sequence (P41143 whole entry): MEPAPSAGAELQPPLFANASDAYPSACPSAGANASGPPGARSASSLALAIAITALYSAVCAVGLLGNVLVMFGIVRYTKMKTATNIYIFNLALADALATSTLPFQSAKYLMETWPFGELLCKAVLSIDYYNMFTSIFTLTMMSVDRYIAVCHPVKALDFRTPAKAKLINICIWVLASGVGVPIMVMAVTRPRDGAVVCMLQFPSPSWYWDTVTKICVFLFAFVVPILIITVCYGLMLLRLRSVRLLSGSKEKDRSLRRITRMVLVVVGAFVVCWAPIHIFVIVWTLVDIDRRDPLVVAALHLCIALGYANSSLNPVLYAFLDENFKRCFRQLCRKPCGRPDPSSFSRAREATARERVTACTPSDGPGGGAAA
Data set [11] has as its target T2, Delta-type opioid receptor. As to the kind of experiment: Agonist activity at Myc-tagged delta-type opioid receptor (unknown origin) expressed in HEK293 cells assessed as inhibition of forskolin-stimulated cAMP accumulation after 30 mins by liquid scintillation counting analysis. Format: functional, cell-based. (In general: Changes in cAMP serve as a functional read-out for many G protein-coupled receptors.)

The target of data set [12] is T1, Mu-type opioid receptor. The data set is described as follows: Agonist activity at FLAG-tagged mu-type opioid receptor (unknown origin) expressed in HEK293 cells assessed as inhibition of forskolin-stimulated cAMP accumulation after 30 mins by liquid scintillation counting analysis relative to DAMGO. The format is functional, cell-based.
In data set [13] the target is T1, Mu-type opioid receptor. As to the kind of experiment: Agonist activity at FLAG-tagged mu-type opioid receptor (unknown origin) expressed in HEK293 cells assessed as inhibition of forskolin-stimulated cAMP accumulation after 30 mins by liquid scintillation counting analysis. Format: functional, cell-based.
The target of data set [14] is Mu-type opioid receptor (Mus musculus) (UniProt P42866). The data set is described as follows: Agonist activity at mu-type opioid receptor in Kunming mouse vas deferens assessed as inhibition of electrically evoked muscle contraction in presence of naltrindole.
Sequence of Mu-type opioid receptor (Mus musculus) (P42866 whole entry): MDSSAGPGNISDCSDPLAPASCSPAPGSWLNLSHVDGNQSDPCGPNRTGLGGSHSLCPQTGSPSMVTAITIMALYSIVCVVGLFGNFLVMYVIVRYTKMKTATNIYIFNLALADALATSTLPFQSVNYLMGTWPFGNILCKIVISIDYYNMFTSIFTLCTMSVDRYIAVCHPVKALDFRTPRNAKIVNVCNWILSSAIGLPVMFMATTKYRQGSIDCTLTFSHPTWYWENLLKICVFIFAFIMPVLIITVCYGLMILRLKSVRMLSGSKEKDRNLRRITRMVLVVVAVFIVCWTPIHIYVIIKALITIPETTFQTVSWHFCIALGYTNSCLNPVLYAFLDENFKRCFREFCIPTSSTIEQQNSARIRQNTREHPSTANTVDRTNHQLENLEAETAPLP
Data set [15] concerns the target Mu-type opioid receptor (Mus musculus, UniProt P42866). The data set is described as follows: Agonist activity at mu-type opioid receptor in Kunming mouse vas deferens assessed as inhibition of electrically evoked muscle contraction.
In data set [16] the target is Mu-type opioid receptor (Cavia porcellus, UniProt P97266). As to the kind of experiment: Agonist activity at mu-type opioid receptor in guinea pig ileum assessed as inhibition of electrically evoked muscle contraction. Format: tissue-based.
Sequence of Mu-type opioid receptor (Cavia porcellus, UniProt P97266) (P97266 whole entry): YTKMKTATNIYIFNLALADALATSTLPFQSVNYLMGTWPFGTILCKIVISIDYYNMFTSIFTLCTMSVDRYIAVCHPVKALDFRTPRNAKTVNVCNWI
Data set [17] in a line: Selectivity ratio of Ki for kappa-type opioid receptor (unknown origin) to Ki for FLAG-tagged mu-type opioid receptor (unknown origin). The note with it: Homo sapiens.
A further data set is filed under the species Homo sapiens. As to the kind of experiment: Selectivity ratio of Ki for Myc-tagged delta-type opioid receptor (unknown origin) to Ki for FLAG-tagged mu-type opioid receptor (unknown origin).
For data set [18], the target named is Kappa-type opioid receptor (Homo sapiens, UniProt P41145). The data set is described as follows: Displacement of [3H]U69,593 from kappa-type opioid receptor (unknown origin) expressed in HEK293 cells after 60 mins by liquid scintillation counting analysis. The format is cell-based. A general note: Loss of bound radioactivity is the signal in a displacement assay; it reports binding, not function.
Sequence of Kappa-type opioid receptor (P41145 whole entry): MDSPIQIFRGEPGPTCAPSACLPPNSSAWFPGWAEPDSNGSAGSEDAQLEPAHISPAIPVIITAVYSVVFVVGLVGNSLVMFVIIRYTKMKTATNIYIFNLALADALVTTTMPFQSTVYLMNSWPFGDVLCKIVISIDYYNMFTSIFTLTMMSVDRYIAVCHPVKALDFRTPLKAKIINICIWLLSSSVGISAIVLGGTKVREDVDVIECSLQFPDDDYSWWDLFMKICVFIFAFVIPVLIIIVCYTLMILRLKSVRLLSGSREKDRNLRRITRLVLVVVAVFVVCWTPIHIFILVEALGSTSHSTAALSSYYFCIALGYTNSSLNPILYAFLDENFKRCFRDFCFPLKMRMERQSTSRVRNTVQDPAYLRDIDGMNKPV

Data set [19] has as its target T2, Delta-type opioid receptor. As to the kind of experiment: Displacement of [3H]DPDPE from Myc-tagged delta-type opioid receptor (unknown origin) expressed in HEK293 cells after 60 mins by liquid scintillation counting analysis. Format: cell-based.
The target of data set [20] is T1, Mu-type opioid receptor. The data set is described as follows: Displacement of [3H]DAMGO from FLAG-tagged mu-type opioid receptor (unknown origin) expressed in HEK293 cells after 60 mins by liquid scintillation counting analysis. The format is cell-based.

The source made the active and inactive calls. The calls are words filed in the database; no cut-off is given here.

In general, ED50 refers to the dose at which the effect has come halfway, by size or by number of responders. As a reminder, the half-life is the time in which the quantity being followed falls by half. One may read the Emax as the size of the effect at its maximum, as opposed to the concentration needed. For orientation: EC50 means the concentration that produces a half-maximal response. The term IC50 denotes the concentration that inhibits the measured activity by half. The Ki is a measure of affinity in units of concentration, obtained from inhibition or displacement. Low values mean a stronger hold on the target, high ones a looser hold on the target.

Sequence of Mu-type opioid receptor (Mus musculus, UniProt P42866) (P42866 whole entry): as the sequence (P42866 whole entry) above

As to `C=C(C(N)=O)[C@@H](NC(=O)[C@H](Cc1c[nH]c2ccccc12)NC(=O)[C@@H]1CCN(C(=O)[C@@H](N)Cc2c(C)cc(O)cc2C)C1)c1ccco1`, the Activity result was “Dose-dependent effect” with Mus musculus [1], “tde” in the data set on Mus musculus [6], “tde” at Mu-type opioid receptor [9] and “Dose-dependent effect” in data set [11]. Further, the ED50 with Mus musculus [1] (central) came to 0.000532 µmol/kg. Also, the outcome in the data set with Mus musculus [2], with Mus musculus [4] and on Mu-type opioid receptor [8] was Active. The result in the data set with Mus musculus [3] and in the data set on Mus musculus [5] was inactive. Moreover, the half-life in data set [7] was over 600 min. Besides, the Emax in [10] is 73.8%; on Mu-type opioid receptor [12], 99.5%. Also, the EC50 in [11] worked out at 89.3 nM. Moreover, the inhibition result on Mu-type opioid receptor [13] is “Dose-dependent effect”. For the same compound, the inhibition entry in data set [14] was “Active”. The values for the IC50 on Mu-type opioid receptor [15] and at Mu-type opioid receptor [16] were 0.548 nM and 0.167 nM, respectively. The Ratio Ki in [17] was found to be 55100; in the data set listed under Homo sapiens it was 5320. Further, the inhibition constant (Ki) stood at 205 nM in data set [18], 19.8 nM in data set [19] and 3.72 pM at Mu-type opioid receptor [20].
